Assay results published in patent publication US20040039014A1, “Methods and compounds for treating depression and other disorders” (NPS Pharmaceuticals, Inc., priority 1998, published 2004).
Counter-ions that a name gives are not always drawn. Like-named read-outs stand apart in the source and are kept apart here. One block for each compound: values may come before it.

Tests used:
[1] = target: T1, NMDA receptor; assay: [3H]MK-801 binding assay (rat cortex synaptic plasma membranes); conditions: read-out: [3H]MK-801 data IC50, Table I
T1 construct: rat cortex membranes
Experimental: Synaptic plasma membranes (SPMs) from rat cortex were prepared as follows. Isolated cerebral cortices from male and female rats were purchased from Pel-Freez (Rogers, Ariz.) in bulk, and stored at −80° C. The cortices from 25 rats were thawed and pooled. […] The resulting homogenates were centrifuged for 10 min at 1,000×g in a T865 rotor, UltraPro80 Sorvall Centrifuge. The supernatant was removed and subsequently centrifuged at 30,000×g for 30 min. […] Membranes were washed by re-suspension in 500 ml of 5 mM K-EDTA (pH 7.0), incubated at 32° C. for 30 min with stirring, and centrifuged at 100,000×g for 30 min. The final pellet was resuspended in 60 ml of […] K-EDTA (pH 7.0) and stored in aliquots at −80° C. The extensive washing procedure utilized in this assay was designed to minimize the concentrations of glutamate and glycine (co-agonists at the NMDA receptor-ionophore complex) present in the membrane preparation.
On the day of assay, aliquots of SPM were thawed and resuspended in 75 vols of 5 mM K-EDTA, pH 7.0. SPM were centrifuged at 100,000×g for 30 min at 4° C.
The SPM pellet was resuspended in assay buffer (30 mM EPPS, 1 mM K-EDTA, pH 7.0) by polytron. […] Binding was started by the addition of the tissue homogenate. The assay was terminated by the addition of 4 ml ice-cold buffer, followed by filtration over glass-fiber filters (Schleicher & Schuell No. 30) on a Millipore 12-well filtration manifold. Filters were washed with another 3 ×4 ml ice-cold buffer (pH 7.0). Radioactivity on the filters was measured using Fisherbrand Scinti-Safe scintillation cocktail. Samples were shaken for 45-60 min on a shaker platform to solubilize the radioactivity. Counting for ^3H was performed in a Beckman 6000IC LS Scintillation Counter for 4 min per sample.

[2] = target: T2, serotonin transporter site (Rattus norvegicus, UniProt P31652); assay: Serotonin reuptake inhibition assay ([3H]citalopram binding, rat forebrain membranes); conditions: Table I; for inhibition at 0.1 µM: @ 100 nM (top number); for inhibition at 0.1 µM / inhibition at 10 µM: read-out: 5-HT Uptake mean % inhibition; for inhibition at 10 µM: @ 10.0 μM (bottom number); for Ki: read-out: 5-HT Uptake Ki
T2 construct: tissue NovaScreen (performed the assay); host or cells: rat forebrain membranes
T2 sequence (P31652 whole entry): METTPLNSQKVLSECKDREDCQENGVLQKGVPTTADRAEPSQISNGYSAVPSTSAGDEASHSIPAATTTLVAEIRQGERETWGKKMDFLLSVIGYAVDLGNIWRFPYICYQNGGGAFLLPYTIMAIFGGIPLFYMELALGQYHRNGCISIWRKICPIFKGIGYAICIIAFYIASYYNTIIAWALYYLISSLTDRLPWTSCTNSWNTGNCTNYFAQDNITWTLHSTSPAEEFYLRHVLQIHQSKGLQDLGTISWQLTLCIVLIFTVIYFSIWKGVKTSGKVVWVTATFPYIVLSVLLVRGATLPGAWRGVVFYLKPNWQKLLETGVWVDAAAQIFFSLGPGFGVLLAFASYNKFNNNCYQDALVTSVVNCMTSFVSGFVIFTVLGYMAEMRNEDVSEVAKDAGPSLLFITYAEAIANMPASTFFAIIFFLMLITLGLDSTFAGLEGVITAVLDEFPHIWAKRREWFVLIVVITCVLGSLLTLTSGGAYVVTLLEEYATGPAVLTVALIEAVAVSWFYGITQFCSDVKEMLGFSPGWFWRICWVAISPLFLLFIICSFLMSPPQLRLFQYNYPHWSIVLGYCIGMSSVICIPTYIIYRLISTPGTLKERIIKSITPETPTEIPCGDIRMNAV
Experimental: (§1) Monoamine Transporter Minding Assays
(§2) Monoamine transporter binding assays (reuptake inhibition assays) were performed by NovaScreen using standard radioligand binding assays. The transporter binding assays are described briefly below:
Serotonin Reuptake Inhibition Assay
Rat forebrain membranes were incubated with 0.7 nM [^3H] citalopram, N-methyl, (70-87 Ci/mmol)in 50 mM Tris-HCl (pH 7.4), 120 mM NaCl, and 5 mM KCl at 25° C. for 60 minutes. […] Reactions were terminated by rapid vacuum filtration onto glass fiber filters.

[3] = target: T3, norepinephrine transporter site (Rattus norvegicus, UniProt Q63380); assay: Norepinephrine reuptake inhibition assay ([3H]nisoxetine binding, rat forebrain membranes); conditions: for inhibition at 0.1 µM / inhibition at 10 µM: read-out: NE Uptake mean % inhibition; for Ki: read-out: NE Uptake Ki
T3 construct: tissue NovaScreen (performed the assay); host or cells: rat forebrain membranes
T3 sequence (Q63380 1-617): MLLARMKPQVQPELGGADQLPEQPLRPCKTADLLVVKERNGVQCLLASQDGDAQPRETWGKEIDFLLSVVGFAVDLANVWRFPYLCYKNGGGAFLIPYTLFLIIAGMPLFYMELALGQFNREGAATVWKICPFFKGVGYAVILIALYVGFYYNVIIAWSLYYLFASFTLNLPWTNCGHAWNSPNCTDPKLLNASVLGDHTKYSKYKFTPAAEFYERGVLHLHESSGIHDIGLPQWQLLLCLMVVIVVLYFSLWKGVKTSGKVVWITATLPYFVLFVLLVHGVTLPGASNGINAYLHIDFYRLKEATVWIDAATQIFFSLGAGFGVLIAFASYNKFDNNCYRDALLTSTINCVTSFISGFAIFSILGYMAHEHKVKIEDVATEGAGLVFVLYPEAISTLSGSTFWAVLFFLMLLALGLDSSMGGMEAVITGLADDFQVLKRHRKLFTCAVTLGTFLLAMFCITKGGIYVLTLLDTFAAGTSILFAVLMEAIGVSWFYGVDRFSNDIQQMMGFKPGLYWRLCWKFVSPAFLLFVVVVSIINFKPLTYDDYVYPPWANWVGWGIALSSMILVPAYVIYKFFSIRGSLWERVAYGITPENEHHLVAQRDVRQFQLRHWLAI
Experimental: as §1, §2
Norepinephrine Reuptake Inhibition Assay
Reactions were terminated by rapid vacuum filtration onto glass fiber filters.

[4] = target: T4, dopamine transporter site (Cavia porcellus, UniProt H0WCX4); assay: Dopamine reuptake inhibition assay ([3H]WIN 35428 binding, guinea pig striatal membranes); conditions: for inhibition at 0.1 µM / inhibition at 10 µM: read-out: DA Uptake mean % inhibition; for Ki: read-out: DA Uptake Ki
T4 construct: tissue NovaScreen (performed the assay); host or cells: guinea pig striatal membranes
T4 sequence (H0WCX4 1-619): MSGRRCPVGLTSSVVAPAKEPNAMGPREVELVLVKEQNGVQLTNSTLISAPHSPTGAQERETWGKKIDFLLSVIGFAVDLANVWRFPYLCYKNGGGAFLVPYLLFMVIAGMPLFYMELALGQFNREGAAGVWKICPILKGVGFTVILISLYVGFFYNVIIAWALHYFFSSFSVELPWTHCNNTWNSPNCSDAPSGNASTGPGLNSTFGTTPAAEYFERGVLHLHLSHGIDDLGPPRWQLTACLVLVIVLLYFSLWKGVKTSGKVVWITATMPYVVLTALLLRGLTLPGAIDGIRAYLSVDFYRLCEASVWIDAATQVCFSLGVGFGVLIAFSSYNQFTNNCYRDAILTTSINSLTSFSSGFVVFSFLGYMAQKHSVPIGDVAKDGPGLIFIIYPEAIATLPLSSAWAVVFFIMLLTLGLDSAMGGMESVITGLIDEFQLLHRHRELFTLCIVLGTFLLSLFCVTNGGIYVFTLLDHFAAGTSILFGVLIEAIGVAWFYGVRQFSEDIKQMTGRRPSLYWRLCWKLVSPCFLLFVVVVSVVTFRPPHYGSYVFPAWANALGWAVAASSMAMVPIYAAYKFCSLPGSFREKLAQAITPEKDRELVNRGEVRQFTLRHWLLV
Experimental: as §1, §2
Dopamine Reuptake Inhibition Assay:
Reactions were terminated by rapid vacuum filtration onto glass fiber filters. Bound radioactivity was determined using liquid scintillation spectrometry and experimental values were compared to control values to determine binding to the dopamine transporter site based on Madras, et al., Molec.

[5] = @ 10.0 μM (bottom number), Table I

Compound: CC(CN)C(c1cccc(Cl)c1)c1cccc(Cl)c1 (centres unmarked) [Compound 46]
- IC50 [1]: 5200 nM
- inhibition at 0.1 µM [2]: 10.4%
- inhibition at 10 µM [2]: 75.4%
- inhibition at 0.1 µM [3]: 7.4%
- inhibition at 10 µM [3]: 64%
- inhibition at 0.1 µM [4]: 40.2%
- inhibition at 10 µM [4]: 97.1%

Compound: N[C@H]1CCCC1C(c1cccc(F)c1)c1cccc(F)c1 (some centres unmarked) [Compound 63]
- IC50 [1]: 245 nM
- inhibition at 0.1 µM [2]: 13.4%
- inhibition at 10 µM [2]: 84.6%
- inhibition at 0.1 µM ([3]; @ 100 nM (top number), Table I): 6.8%
- inhibition at 10 µM [3, 5]: 76.2%
- inhibition at 0.1 µM ([4]; @ 100 nM (top number), Table I): 64.3%
- inhibition at 10 µM [4, 5]: 97.8%

Compound: N[C@@H]1CCCC1C(c1cccc(F)c1)c1cccc(F)c1 (some centres unmarked) [Compound 64]
- IC50 [1]: 851 nM
- Ki [2]: 252 nM
- Ki ([3]; Table I): 508 nM
- Ki ([4]; Table I): 119 nM

Compound: Cc1ccccc1C(CCN)c1ccccc1C [Compound 65]
- IC50 [1]: 2000 nM
- Ki [2]: 127 nM
- Ki ([4]; Table I): 22000 nM

Compound: CNC[C@H](C)C(c1cccc(F)c1)c1cccc(F)c1 [Compound 66]
- IC50 [1]: 1200 nM
- inhibition at 0.1 µM [2]: 6.1%
- inhibition at 10 µM [2]: 67.5%
- inhibition at 0.1 µM ([3]; @ 100 nM (top number), Table I): 4.2%
- inhibition at 10 µM [3, 5]: 36.5%
- inhibition at 0.1 µM ([4]; @ 100 nM (top number), Table I): 4.4%
- inhibition at 10 µM [4, 5]: 92.8%

Compound: NCCC(Oc1ccccc1)c1cccc(F)c1 (centres unmarked) [Compound 118]
- IC50 [1]: 240 nM
- Ki [2]: 131 nM
- Ki ([4]; Table I): 4100 nM

Compound: NCCC(Oc1cccc(F)c1)c1cccc(F)c1 (centres unmarked) [Compound 119, 3-(3-Fluorophenoxy)-3-(3-fluorophenyl)-1-propylamine]
- inhibition at 0.1 µM [2]: 0.6%
- inhibition at 10 µM [2]: 3.1%

Compound: NCCC1c2ccccc2CCc2ccccc21 [Compound 156, 5-(2-Aminoethyl)-5H-10,11-dihydrodibenzo [a, d] cycloheptene hydrochloride]
- IC50 [1]: 90 nM
- Ki [2]: 1200 nM
- Ki ([3]; Table I): 570 nM
- Ki ([4]; Table I): > 10000 nM

Compound: Cc1ccccc1OC(CCN)c1ccccc1 (centres unmarked) [Compound 177]
- IC50 [1]: 754 nM
- Ki [3]: 109 nM
- Ki ([4]; Table I): > 10000 nM

Compound: NCC[C@@H](Oc1cccc(F)c1)c1ccccc1 [Compound 185, (R)-3-(3-Fluorophenoxy)-3-phenylpropylamine]
- Ki [2]: 2400 nM
- Ki ([4]; Table I): 1100 nM

Compound: NCC[C@H](Oc1cccc(F)c1)c1ccccc1 [Compound 186]
- Ki ([4]; Table I): 3100 nM

Compound: NCC[C@@H](Oc1cccc(F)c1)c1cccc(F)c1 [Compound 191]
- IC50 [1]: 1300 nM
- Ki [2]: 134 nM
- Ki ([3]; Table I): 638 nM
- Ki ([4]; Table I): 1550 nM

Compound: NCC[C@H](Oc1cccc(F)c1)c1cccc(F)c1 [Compound 192]
- Ki [2]: 14 nM
- Ki ([3]; Table I): 325 nM
- Ki ([4]; Table I): 1300 nM

Compound: NCCC1c2cccc(F)c2CCc2c(F)cccc21 [Compound 193]
- IC50 [1]: > 1000 nM

Compound: NCCC1c2cc(F)ccc2CCc2c(F)cccc21 (centres unmarked) [Compound 194]
- IC50 [1]: 371 nM

Compound: NCCC1c2cc(F)ccc2CCc2ccc(F)cc21 [Compound 195]
- IC50 [1]: 29 nM

Compound: Fc1ccc([C@@H]2CCNC[C@H]2COc2ccc3c(c2)OCO3)cc1 [Paroxetine, reference compound]
- inhibition at 0.1 µM [4]: < 20%

Other lines, results leading:

- IC50 [1]: 203 nM
- inhibition at 0.1 µM [2]: 27.2%
- inhibition at 10 µM [2]: 95.2%
- inhibition at 0.1 µM ([3]; @ 100 nM (top number), Table I): 1.3%
- inhibition at 10 µM [3, 5]: 66.6%
- inhibition at 0.1 µM ([4]; @ 100 nM (top number), Table I): 0%
- inhibition at 10 µM [4, 5]: 45.2%
Compound: Cc1ccc(F)cc1C(CCN)c1cc(F)ccc1C [Compound 58]

- IC50 [1]: 453 nM
- inhibition at 0.1 µM [2]: 14.3%
- inhibition at 10 µM [2]: 85.7%
- inhibition at 0.1 µM ([3]; @ 100 nM (top number), Table I): 7.4%
- inhibition at 10 µM [3, 5]: 50.6%
- inhibition at 0.1 µM ([4]; @ 100 nM (top number), Table I): 1.6%
- inhibition at 10 µM [4, 5]: 77.6%
Compound: CCNCCC(c1cccc(F)c1)c1cccc(F)c1 [Compound 59]

- IC50 [1]: 366 nM
Compound: CN[C@@H](C)CC(c1cccc(F)c1)c1cccc(F)c1 [Compound 69]

- IC50 [1]: 942 nM
Compound: CNCCC(c1ccccc1)c1cccc(F)c1 (centres unmarked) [Compound 108]

- IC50 [1]: 74 nM
Compound: NCCC(Oc1cccc(Cl)c1)c1cccc(F)c1 (centres unmarked) [Compound 120]

- IC50 [1]: 670 nM
- inhibition at 0.1 µM [2]: 8.5%
- inhibition at 10 µM [2]: 84.3%
- inhibition at 0.1 µM ([3]; @ 100 nM (top number), Table I): 33.6%
- inhibition at 10 µM [3, 5]: 94.9%
- inhibition at 0.1 µM ([4]; @ 100 nM (top number), Table I): 1.8%
- inhibition at 10 µM [4, 5]: 91.3%
Compound: COc1ccccc1OC(CCN)c1cccc(F)c1 (centres unmarked) [Compound 121]

- IC50 [1]: 342 nM
- Ki [2]: 62 nM
- Ki ([3]; Table I): 103 nM
- Ki ([4]; Table I): 2800 nM
Compound: NCCC(Oc1ccccc1F)c1cccc(F)c1 (centres unmarked) [Compound 122]

- IC50 [1]: 1540 nM
Compound: CNCCC(c1cccc(F)c1)c1cccc(OC)c1 (centres unmarked) [Compound 142]

- IC50 [1]: 626 nM
- inhibition at 0.1 µM [2]: 3.5%
- inhibition at 10 µM [2]: 81.1%
- inhibition at 0.1 µM ([3]; @ 100 nM (top number), Table I): 16.6%
- inhibition at 10 µM [3, 5]: 99.4%
- inhibition at 0.1 µM ([4]; @ 100 nM (top number), Table I): 0%
- inhibition at 10 µM [4, 5]: 87.4%
Compound: CNCCC(Oc1cccc(F)c1)c1cccc(F)c1 (centres unmarked) [Compound 145]

- IC50 [1]: 373 nM
Compound: NCCC(Oc1ccccc1)c1cccc(Cl)c1 (centres unmarked) [Compound 148]

- IC50 [1]: 150 nM
Compound: NCCC(Oc1cccc(Cl)c1)c1cccc(Cl)c1 (centres unmarked) [Compound 149]

- IC50 [1]: 351 nM
Compound: NCCC(Oc1cccc(F)c1)c1cccc(Cl)c1 (centres unmarked) [Compound 150]

- IC50 [1]: 1250 nM
Compound: COc1ccccc1OC(CCN)c1ccccc1 (centres unmarked) [Compound 178]

- IC50 [1]: 632 nM
- inhibition at 0.1 µM [2]: 37.4%
- inhibition at 10 µM [2]: 74.2%
- inhibition at 0.1 µM ([3]; @ 100 nM (top number), Table I): 10.7%
- inhibition at 10 µM [3, 5]: 32%
- inhibition at 0.1 µM ([4]; @ 100 nM (top number), Table I): 0%
- inhibition at 10 µM [4, 5]: 109%
Compound: Cc1ccccc1OC(CCN)c1cccc(F)c1 (centres unmarked) [Compound 181]

- IC50 [1]: 7050 nM
Compound: NCCC1c2ccccc2Oc2ccccc21 [Compound 182]

- IC50 [1]: 5010 nM
Compound: NCCC1c2ccccc2Sc2ccccc21 [Compound 183]

- IC50 [1]: 1510 nM
Compound: NCCC1c2ccccc2C=Cc2ccccc21 [Compound 184]

- IC50 [1]: 2010 nM
Compound: NCCC1c2ccccc2COc2ccccc21 (centres unmarked) [Compound 187]

- IC50 [1]: 2240 nM
Compound: NCCC1c2ccccc2CCc2c(F)cccc21 (centres unmarked) [Compound 196]

- IC50 [1]: 53 nM
- inhibition at 0.1 µM [2]: 9.8%
- inhibition at 10 µM [2]: 58.1%
- inhibition at 0.1 µM ([3]; @ 100 nM (top number), Table I): 0%
- inhibition at 10 µM [3, 5]: 27.5%
- inhibition at 0.1 µM ([4]; @ 100 nM (top number), Table I): 0%
- inhibition at 10 µM [4, 5]: 83.5%
Compound: NCCC1c2ccccc2CCc2ccc(F)cc21 (centres unmarked) [Compound 197]
